One assay addresses Wee1 (h) (Homo sapiens, UniProt P30291). Put plainly: Wee1 kinase (h) detection method, [γ-33P]-ATP filter assay. It counts as biochemical.
A further assay relates to LoVo cells. Put plainly: MTT based cell viability assay on LoVo cells. Conditions: Homo sapiens, LoVo, 72 h, 3 d, read-out: IC50, growth inhibition of LoVo cells. The essentials:
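Inhibition of LoVo proliferation was derived as IC50 from a sigmoidal dose-response fit of cell survival. Readout was MTT (0.5 mg/mL, 4 h) with absorbance at 552/630/690 nm, after 3-day treatment at 37 °C. Eight-point series from 10 μM to 0.01 μM, DMSO control, 1% DMSO final.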

The next assay concerns NCI-H1299 cells. Put plainly: MTT based cell viability assay on NCI-H1299 cells. Particulars: Homo sapiens, read-out: IC50, growth inhibition of NCI-H1299 cells. The essentials: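 NCI-H1299 cells (1000/well, settled overnight) were exposed for 3 d at 37 °C, 5% CO2, to an eight-point series of 10 μM to 0.01 μM plus DMSO blank, as prepared in DMSO (final DMSO 1‰). MTT (0.5 mg/mL, 4 h) was read at 552/630/690 nm. IC50 came from sigmoidal dose-response fits of survival.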

Like-named read-outs stand apart in the source and are kept apart here.

As a reminder, the IC50 is the point on the concentration scale where inhibition reaches its midpoint.

Wee1 (h), sequence (P30291 whole entry): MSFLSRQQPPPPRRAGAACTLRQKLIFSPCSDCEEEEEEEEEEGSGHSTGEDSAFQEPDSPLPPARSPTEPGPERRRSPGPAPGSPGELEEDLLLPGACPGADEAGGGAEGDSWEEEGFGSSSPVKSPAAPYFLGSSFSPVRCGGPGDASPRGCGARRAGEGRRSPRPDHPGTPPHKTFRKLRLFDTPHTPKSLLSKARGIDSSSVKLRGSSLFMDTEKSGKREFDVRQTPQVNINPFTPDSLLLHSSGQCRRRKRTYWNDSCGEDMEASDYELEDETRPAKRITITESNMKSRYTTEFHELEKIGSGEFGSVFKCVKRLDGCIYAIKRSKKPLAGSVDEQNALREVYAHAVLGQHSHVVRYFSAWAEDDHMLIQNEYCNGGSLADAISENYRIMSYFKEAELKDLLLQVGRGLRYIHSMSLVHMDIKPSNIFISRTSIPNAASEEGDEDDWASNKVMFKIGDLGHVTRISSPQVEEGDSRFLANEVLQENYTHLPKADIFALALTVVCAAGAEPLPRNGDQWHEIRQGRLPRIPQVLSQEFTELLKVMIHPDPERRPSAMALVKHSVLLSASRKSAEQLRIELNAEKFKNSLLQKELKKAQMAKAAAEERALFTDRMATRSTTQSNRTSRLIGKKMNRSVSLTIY

As to `CN(C)C1CCN(c2c(Cl)cc(Nc3ncc4c(n3)N3CCN=C3N(c3c(Cl)cccc3Cl)C4=O)cc2Cl)CC1` [Example 142, 6-(2,6-Dichlorophenyl)-2-((3,5-dichloro-4-(4-(dimethylamino)piperidin-1-yl)phenyl)amino)-8,9-dihydroimidazo[1,2-a]pyrimido[5,4-e]pyrimidin-5(6H)-one], the “Inh. (%) of Wee1 kinase enzyme activity” value on Wee1 (h) (C 0.01 μm compound) was determined as 22%; at Wee1 (h) (C 0.1 μm compound), 75%; at Wee1 (h) (C 1 μm compound) it was 95%. Also, the 50% inhibitory concentration (IC50) in the assay with LoVo cells is 51.4 nM; in the assay with NCI-H1299 cells (NCI-H1299, NCI-H1299 cells) it was 109 nM.

As to `CN1CCN(c2ccc(Nc3ncc4c(n3)N3CCN=C3N(c3c(Cl)cccc3Cl)C4=O)cc2)CC1` [Example 4, 6-(2,6-Dichlorophenyl)-2-((4-(4-methylpiperazin-1-yl)phenyl)amino)-8,9-dihydroimidazo[1,2-a]pyrimido[5,4-e]pyrimidin-5(6H)-one], the “Inh. (%) of Wee1 kinase enzyme activity” value is on record as 55% at Wee1 (h) (C 0.01 μm compound), 93% at Wee1 (h) (C 0.1 μm compound) and 97% at Wee1 (h) (C 1 μm compound). The inhibition at 0.01 µM on Wee1 (h) (at 0.01 μM, read-out: inhibitory rate on Wee1 enzyme activity) is 51%. Further, the 50% inhibitory concentration (IC50) stood at 169 nM with LoVo cells and 204 nM in the assay on NCI-H1299 cells (NCI-H1299, NCI-H1299 cells).

Consider `CN1CCN(c2ccc(Nc3ncc4c(n3)N3CCN=C3N(c3c(F)cccc3Cl)C4=O)cn2)CC1` [Example 57, 6-(2-Chloro-6-fluorophenyl)-2-((6-(4-methylpiperazin-1-yl)pyridin-3-yl)amino)-8,9-dihydroimidazo[1,2-a]pyrimido[5,4-e]pyrimidin-5(6H)-one], for which the results for the “Inh. (%) of Wee1 kinase enzyme activity” value on Wee1 (h) (C 0.01 μm compound), on Wee1 (h) (C 0.1 μm compound) and on Wee1 (h) (C 1 μm compound) were 36%, 80% and 89%, respectively. For the same compound, the IC50 was 13600 nM in the assay on LoVo cells and greater than 10000 nM in the assay with NCI-H1299 cells (NCI-H1299 cells).

With `CN1CCN(c2ccc(Nc3ncc4c(n3)N3CCN=C3NC4=O)cc2)CC1` [Example 93, 2-((4-(4-Methylpiperazin-1-yl)phenyl)amino)-8,9-dihydroimidazo[1,2-a]pyrimido[5,4-e]pyrimidin-5(6H)-one], the “Inh. (%) of Wee1 kinase enzyme activity” value on Wee1 (h) (C 1 μm compound) was found to be 0%. Further, the half-maximal inhibitory concentration (IC50) was greater than 100000 nM with LoVo cells and greater than 10000 nM with NCI-H1299 cells (NCI-H1299 cells).

On to `CC(C)N1Cc2cc(Nc3ncc4c(n3)N3CCN=C3N(c3c(F)cccc3Cl)C4=O)ccc2C2(CC2)C1` [Example 58, 6-(2-Chloro-6-fluorophenyl)-2-((2′-isopropyl-2′,3′-dihydro-1′H-spiro[cyclopropane-1,4′-isoquinolin]-7′-yl)amino)-8,9-dihydroimidazo[1,2-a]pyrimido[5,4-e]pyrimidin-5(6H)-one], for which the “Inh. (%) of Wee1 kinase enzyme activity” value was determined as 46% at Wee1 (h) (C 0.01 μm compound), 92% at Wee1 (h) (C 0.1 μm compound) and 100% on Wee1 (h) (C 1 μm compound). The IC50 stood at 90 nM in the assay on LoVo cells and 426 nM with NCI-H1299 cells (NCI-H1299 cells).

Regarding `CN1CCN(c2ccc(Nc3ncc4c(n3)N3CCN=C3N(c3ccc(Cl)cc3)C4=O)cc2)CC1` [Example 85, 6-(4-Chlorophenyl)-2-((4-(4-methylpiperazin-1-yl)phenyl)amino)-8,9-dihydroimidazo[1,2-a]pyrimido[5,4-e]pyrimidin-5(6H)-one], on Wee1 (h) (C 1 μm compound), the “Inh. (%) of Wee1 kinase enzyme activity” value is listed as 17%. Moreover, the IC50 in the assay with LoVo cells was greater than 100000 nM; with NCI-H1299 cells (NCI-H1299 cells), greater than 10000 nM.

For `CN1CCN(c2ccc(Nc3ncc4c(n3)N3CCN=C3N(c3c(F)cccc3Cl)C4=O)c(C(F)(F)F)c2)CC1` [Example 40, 6-(2-Chloro-6-fluorophenyl)-2-((4-(4-methylpiperazin-1-yl)-2-(trifluoromethyl)phenyl)amino)-8,9-dihydroimidazo[1,2-a]pyrimido[5,4-e]pyrimidin-5(6H)-one], the “Inh. (%) of Wee1 kinase enzyme activity” value on Wee1 (h) (C 1 μm compound) was found to be 4%. Moreover, the concentration for half-maximal inhibition (IC50) in the assay with LoVo cells is greater than 100000 nM; in the assay with NCI-H1299 cells (NCI-H1299 cells), greater than 10000 nM.

As to `CN1CCN(c2ccc(Nc3ncc4c(n3)N3CCN=C3N(c3cccnc3)C4=O)cc2)CC1` [Example 98, 6-(Pyridin-3-yl)-2-((4-(4-methylpiperazin-1-yl)phenyl)amino)-8,9-dihydroimidazo[1,2-a]pyrimido[5,4-e]pyrimidin-5(6H)-one], the “Inh. (%) of Wee1 kinase enzyme activity” value at Wee1 (h) (C 1 μm compound) was 2%. In addition, the IC50 is greater than 100000 nM in the assay with LoVo cells and greater than 10000 nM with NCI-H1299 cells (NCI-H1299 cells).

Take `C[C@@H]1CN(c2ccc(Nc3ncc4c(n3)N3CCN=C3N(c3c(F)cccc3Cl)C4=O)c(C(F)(F)F)c2)C[C@H](C)N1C` [Example 41, 6-(2-Chloro-6-fluorophenyl)-2-((2-trifluoromethyl-4-((3S,5R)-3,4,5-trimethylpiperazin-1-yl)phenyl)amino)-8,9-dihydroimidazo[1,2-a]pyrimido[5,4-e]pyrimidin-5(6H)-one]: the “Inh. (%) of Wee1 kinase enzyme activity” value at Wee1 (h) (C 1 μm compound) was found to be 2%. The results for the IC50 in the assay on LoVo cells and in the assay with NCI-H1299 cells (NCI-H1299 cells) were greater than 100000 nM and greater than 10000 nM, respectively.

`Cc1cccc(C)c1N1C(=O)c2cnc(Nc3ccc4c(c3)CN(C)CC43CC3)nc2N2CCN=C21` [Example 17, 6-(2,6-Dimethylphenyl)-2-((2′-methyl-2′,3′-dihydro-1′H-spiro[cyclopropane-1,4′-isoquinolin]-7′-yl)amino)-8,9-dihydroimidazo[1,2-a]pyrimido[5,4-e]pyrimidin-5(6H)-one]: the “Inh. (%) of Wee1 kinase enzyme activity” value at Wee1 (h) (C 1 μm compound) is 87%. Moreover, the concentration for half-maximal inhibition (IC50) with LoVo cells amounted to 290 nM; in the assay on NCI-H1299 cells (NCI-H1299 cells), 447 nM.

Turning to `C[C@@H]1CN(c2ccc(Nc3ncc4c(n3)N3CCN=C3N(c3c(F)cccc3Cl)C4=O)cc2F)C[C@H](C)N1C` [Example 45, 6-(2-Chloro-6-fluorophenyl)-2-((3-fluoro-4-((3S,5R)-3,4,5-trimethylpiperazin-1-yl)phenyl)amino)-8,9-dihydroimidazo[1,2-a]pyrimido[5,4-e]pyrimidin-5(6H)-one], the “Inh. (%) of Wee1 kinase enzyme activity” value on Wee1 (h) (C 0.01 μm compound) was 28%; on Wee1 (h) (C 0.1 μm compound), 80%; on Wee1 (h) (C 1 μm compound), 95%. In addition, the IC50 was found to be 1180 nM with LoVo cells and 616 nM in the assay with NCI-H1299 cells (NCI-H1299, NCI-H1299 cells).

In the case of `CN1CCC(Oc2ccc(Nc3ncc4c(n3)N3CCN=C3N(c3c(F)cccc3Cl)C4=O)cc2)CC1` [Example 107, 6-(2-Chloro-6-fluorophenyl)-2-((4-((1-methylpiperidin-4-yl)oxy)phenyl)amino)-8,9-dihydroimidazo[1,2-a]pyrimido[5,4-e]pyrimidin-5(6H)-one], on Wee1 (h) (C 1 μm compound), the “Inh. (%) of Wee1 kinase enzyme activity” value is recorded as 95%. In addition, the IC50 in the assay with LoVo cells worked out at 360 nM; with NCI-H1299 cells (NCI-H1299 cells) it was 794 nM.

Turning to `Cc1cccc(Cl)c1N1C(=O)c2cnc(Nc3ccc(N4CCN(C)CC4)c(Cl)c3)nc2N2CCN=C21` [Example 171, 6-(2-Chloro-6-methylphenyl)-2-((3-chloro-4-(4-methylpiperazin-1-yl)phenyl)amino)-8,9-dihydroimidazo[1,2-a]pyrimido[5,4-e]pyrimidin-5(6H)-one], the “Inh. (%) of Wee1 kinase enzyme activity” value at Wee1 (h) (C 0.01 μm compound) is 16%; on Wee1 (h) (C 0.1 μm compound), 59%; at Wee1 (h) (C 1 μm compound), 95%. The half-maximal inhibitory concentration (IC50) with LoVo cells was 228 nM; in the assay with NCI-H1299 cells (NCI-H1299, NCI-H1299 cells), 442 nM.

With `Cc1cc(Nc2ncc3c(n2)N2CCN=C2N(c2c(F)cccc2Cl)C3=O)cc(F)c1N1CCN(C)CC1` [Example 123, 6-(2-Chloro-6-fluorophenyl)-2-((3-fluoro-5-methyl-4-(4-methylpiperazin-1-yl)phenyl)amino)-8,9-dihydroimidazo[1,2-a]pyrimido[5,4-e]pyrimidin-5(6H)-one], the “Inh. (%) of Wee1 kinase enzyme activity” value on Wee1 (h) (C 0.01 μm compound) is on record as 43%; on Wee1 (h) (C 0.1 μm compound), 87%; at Wee1 (h) (C 1 μm compound), 97%. Also, the IC50 in the assay on LoVo cells came out at 39.1 nM; in the assay with NCI-H1299 cells (NCI-H1299, NCI-H1299 cells) it was 218 nM.

For the compound `CN1CCN(c2ccc(Nc3cc4c(cn3)C(=O)N(c3ccccc3Cl)C3=NCCN34)cc2)CC1` [Example 3, 4-(2-Chlorophenyl)-8-((4-(4-methylpiperazin-1-yl)phenyl)amino)-2,4-dihydroimidazo[1,2-a]pyrido[3,4-e]pyrimidin-5(1H)-one], the “Inh. (%) of Wee1 kinase enzyme activity” value on Wee1 (h) (C 10 μm compound) is given as 56%. The 50% inhibitory concentration (IC50) is greater than 100000 nM in the assay with LoVo cells and greater than 10000 nM in the assay with NCI-H1299 cells (NCI-H1299 cells).

Turning to `Cc1cc(Nc2ncc3c(n2)N2CCN=C2N(c2c(F)cccc2Cl)C3=O)ccc1N1CCN(C(C)C)CC1` [Example 52, 6-(2-Chloro-6-fluorophenyl)-2-((4-(4-isopropylpiperazin-1-yl)-3-methylphenyl)amino)-8,9-dihydroimidazo[1,2-a]pyrimido[5,4-e]pyrimidin-5(6H)-one], the “Inh. (%) of Wee1 kinase enzyme activity” value was determined as 111% at Wee1 (h) (C 0.01 μm compound), 80% on Wee1 (h) (C 0.1 μm compound) and 93% on Wee1 (h) (C 1 μm compound). Further, the half-inhibitory concentration (IC50) in the assay on LoVo cells is 87.4 nM; with NCI-H1299 cells (NCI-H1299, NCI-H1299 cells), 127 nM.

In the case of `CC(C)N1[C@H](C)CN(c2ccc(Nc3ncc4c(n3)N3CCN=C3N(c3c(Cl)cccc3Cl)C4=O)cc2)C[C@@H]1C` [Example 65, 6-(2,6-Dichlorophenyl)-2-((4-((3S,5R)-4-isopropyl-3,5-dimethylpiperazin-1-yl)phenyl)amino)-8,9-dihydroimidazo[1,2-a]pyrimido[5,4-e]pyrimidin-5(6H)-one], the “Inh. (%) of Wee1 kinase enzyme activity” value at Wee1 (h) (C 0.01 μm compound) is recorded as 18%; on Wee1 (h) (C 0.1 μm compound), 68%; at Wee1 (h) (C 1 μm compound), 98%. The IC50 in the assay with LoVo cells turned out to be 102 nM; in the assay on NCI-H1299 cells (NCI-H1299 cells) it was 404 nM.

These data come from patent US11345711B2, “8,9-dihydroimidazo[1,2-a]pyrimido[5,4-e]pyrimidin-5(6H)-ones” (IMPACT THERAPEUTICS (SHANGHAI), INC, priority 2016, dated 2022).
